The source made the active and inactive calls. No cut-off for these calls is given here.

As a reminder, the IC50 is the midpoint of a concentration-inhibition curve.

The target of assay [1] is T1, Amyloid-beta precursor protein (Homo sapiens, UniProt P05067). Kind of assay: Inhibition of amyloid beta1-42 (unknown origin) aggregation assessed as reduction in amyloid fibril formation at 40 uM after 5 days by Transmission electron microscopy.
Assay [2] has as its target T1, Amyloid-beta precursor protein. The experiment in a line: Inhibition of amyloid beta1-42 (unknown origin) aggregation assessed as amyloid fibril formation tested after 17 hrs by thioflavin T fluorescence method.
Assay [3] shares this target. The experiment in a line: Inhibition of amyloid beta1-42 (unknown origin) aggregation assessed as amyloid fibril formation tested at 1:1 compound to peptide ratio after 17 hrs by thioflavin T fluorescence method. On the set-up: scale not given: the % may be the effect or the level left.
Assay [4] shares this target. Kind of assay: Inhibition of amyloid beta1-40 (unknown origin) aggregation.
Assay [5] has the same target. Kind of assay: Inhibition of amyloid beta1-42 (unknown origin) aggregation assessed as reduction in large aggregates at 400 uM after 20 mins and 2 hrs by size exclusion chromatography test. Background: SEC sorts molecules by how far they enter the pores of the column.
Assay [6] shares this target. Kind of assay: Inhibition of amyloid beta1-42 (unknown origin) aggregation assessed as reduction in large aggregates at 100 uM after 20 mins and 24 hrs by dynamic light scattering method.

T1 sequence (P05067 whole entry): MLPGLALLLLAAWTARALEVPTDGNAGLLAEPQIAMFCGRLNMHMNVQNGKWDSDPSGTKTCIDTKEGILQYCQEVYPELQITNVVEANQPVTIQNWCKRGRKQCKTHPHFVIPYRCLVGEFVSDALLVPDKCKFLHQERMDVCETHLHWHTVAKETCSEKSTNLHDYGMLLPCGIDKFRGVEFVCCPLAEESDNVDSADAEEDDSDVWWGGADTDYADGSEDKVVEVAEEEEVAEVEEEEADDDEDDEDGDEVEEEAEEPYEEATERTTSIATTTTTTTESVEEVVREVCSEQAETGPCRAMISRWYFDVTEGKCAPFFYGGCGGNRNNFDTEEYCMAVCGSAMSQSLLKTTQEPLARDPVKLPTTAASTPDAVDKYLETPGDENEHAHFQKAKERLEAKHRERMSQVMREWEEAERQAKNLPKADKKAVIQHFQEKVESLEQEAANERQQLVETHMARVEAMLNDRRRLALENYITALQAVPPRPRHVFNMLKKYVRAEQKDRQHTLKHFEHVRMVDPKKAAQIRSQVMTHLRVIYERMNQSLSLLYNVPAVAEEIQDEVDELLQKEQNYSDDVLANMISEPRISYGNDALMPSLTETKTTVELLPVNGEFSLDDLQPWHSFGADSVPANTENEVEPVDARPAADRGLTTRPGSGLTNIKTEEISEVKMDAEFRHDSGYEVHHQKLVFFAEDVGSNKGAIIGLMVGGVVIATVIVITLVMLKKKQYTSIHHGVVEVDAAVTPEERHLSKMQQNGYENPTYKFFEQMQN

Regarding `O=C1/C(=C/c2ccc(O)c(O)c2)Oc2c1ccc(O)c2O`, in assay [1], the “inhibition of amyloid fibril formation (active/inactive)” value (from here on “inhibition … (active/inactive)”) was “Active”. Also, in assay [2], the IC50 amounted to 2.7 µM. For the same compound, the Activity in assay [3] is 18.5%.

Regarding `O=C(O[C@@H]1Cc2c(O)cc(O)cc2O[C@@H]1c1cc(O)c(O)c(O)c1)c1cc(O)c(O)c(O)c1` [EPIGALOCATECHIN GALLATE], the “inhibition … (active/inactive)” value in assay [1] is “Active”. For the same compound, the IC50 in assay [2] came to 4.6 µM; in assay [4], 3 µM. Also, the Activity in assay [3] is 16%.

For the compound `COc1c(-c2ccc(O)c(O)c2)oc2c(O)c(O)ccc2c1=O`, the “inhibition … (active/inactive)” value in assay [1] is “Active”. Moreover, the IC50 in assay [2] came out at 5.4 µM. For the same compound, in assay [5], the outcome was Active. Further, in assay [3], the Activity came to 21%. The inhibition result in assay [6] was “Active”.

As for `O=c1cc(-c2ccc(O)c(O)c2)oc2cc(O)cc(O)c12` [LUTEOLIN], the “inhibition … (active/inactive)” value in assay [1] was “Active”. Also, the IC50 in assay [2] was 6.4 µM. Moreover, the Activity in assay [3] was 14.4%.
